Assays:
Capivasertib = compound: C1CN(CCC1(C(=O)N[C@@H](CCO)C2=CC=C(C=C2)Cl)N)C3=NC=NC4=C3C=CN4 [Capivasertib]
In short: (§1)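 Cancer cell lines were plated in 1536-well plates in 7.5 μl of DMEM/F12 or RPMI with 10% FBS and kept 24 hours at 37°C and 5% CO2 before 72 hours of dosing, with final DMSO typically 0.2%. CellTiter-Glo 2.0 luminescence measured viability, scaled between blank-well and DMSO-well means. Dose responses were fitted to a two-parameter logistic curve with a non-linear mixed effects model. This fit gives the single-agent IC50.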

Selumetinib = compound: Cn1cnc2c(F)c(Nc3ccc(Br)cc3Cl)c(C(=O)NOCCO)cc21 [Selumetinib]
In short: as §1

AZD2811 = compound: CCN(CCO)CCCOc1ccc2c(Nc3cc(CC(=O)Nc4cccc(F)c4)[nH]n3)ncnc2c1 [AZD2811]; conditions: max 1 µM
In short: as §1

Venetoclax = compound: CC1(C)CCC(CN2CCN(c3ccc(C(=O)NS(=O)(=O)c4ccc(NCC5CCOCC5)c([N+](=O)[O-])c4)c(Oc4cnc5[nH]ccc5c4)c3)CC2)=C(c2ccc(Cl)cc2)C1 [Venetoclax]; conditions: max 1 µM
In short: as §1

Prexasertib = compound: COc1cccc(OCCCN)c1-c1cc(Nc2cnc(C#N)cn2)n[nH]1 [Prexasertib]; conditions: max 1 µM
In short: as §1

AZD4320 = compound: CN(CC[C@H](CSC1=CC=CC=C1)NC2=C(C=C(C=C2)S(=O)(=O)NC(=O)C3=CC=C(C=C3)N4CCC(CC4)[C@H](C5=CC=CC=C5C6=CC=C(C=C6)Cl)O)S(=O)(=O)C(F)(F)F)CCO [AZD4320]; conditions: max 1 µM
In short: as §1

AZD5991 = compound: Cc1c2c(nn1C)CSCc1cc(n(C)n1)CSc1cc(c3ccccc3c1)OCCCc1c(C(=O)O)n(C)c3c-2c(Cl)ccc13 [AZD5991]; conditions: max 1 µM
In short: as §1

AZD8186 = compound: C[C@@H](Nc1cc(F)cc(F)c1)c1cc(C(=O)N(C)C)cc2c(=O)cc(N3CCOCC3)oc12 [AZD8186]; conditions: max 3 µM
In short: as §1

Dasatinib = compound: CC1=C(C(=CC=C1)Cl)NC(=O)C2=CN=C(S2)NC3=CC(=NC(=N3)C)N4CCN(CC4)CCO [Dasatinib]; conditions: max 2 µM
In short: as §1

Taselisib = compound: Cc1nc(-c2cn3c(n2)-c2ccc(-c4cnn(C(C)(C)C(N)=O)c4)cc2OCC3)n(C(C)C)n1 [Taselisib]; conditions: max 10 µM
In short: as §1

AZD1775 = compound: C=CCn1c(=O)c2cnc(Nc3ccc(N4CCN(C)CC4)cc3)nc2n1-c1cccc(C(C)(C)O)n1 [AZD1775]
In short: as §1

AZD1390 = compound: CC(C)n1c(=O)n(C)c2cnc3cc(F)c(-c4ccc(OCCCN5CCCCC5)nc4)cc3c21 [AZD1390]; conditions: max 0.3 µM
In short: as §1

Doxorubicin = compound: COc1cccc2c1C(=O)c1c(O)c3c(c(O)c1C2=O)C[C@@](O)(C(=O)CO)C[C@@H]3O[C@H]1C[C@H](N)[C@H](O)[C@H](C)O1 [Doxorubicin]; conditions: max 1 µM
In short: as §1

Gefitinib = compound: COc1cc2ncnc(Nc3ccc(F)c(Cl)c3)c2cc1OCCCN1CCOCC1 [Gefitinib]; conditions: max 10 µM
In short: as §1

Alisertib = compound: COc1cc(Nc2ncc3c(n2)-c2ccc(Cl)cc2C(c2c(F)cccc2OC)=NC3)ccc1C(=O)O [Alisertib]; conditions: max 10 µM
In short: as §1

SG3199 = compound: CC1=CN2[C@@H](C1)C=NC3=CC(=C(C=C3C2=O)OC)OCCCCCOC4=C(C=C5C(=C4)N=C[C@@H]6CC(=CN6C5=O)C)OC [SG3199]; conditions: max 0.001 µM
In short: as §1

Savolitinib = compound: C[C@@H](c1ccc2nccn2c1)n1nnc2ncc(-c3cnn(C)c3)nc21 [Savolitinib]; conditions: max 1 µM
In short: as §1

Lapatinib = compound: CS(=O)(=O)CCNCc1ccc(-c2ccc3ncnc(Nc4ccc(OCc5cccc(F)c5)c(Cl)c4)c3c2)o1 [Lapatinib]; conditions: max 10 µM
In short: as §1

SN-38 = compound: CCc1c2c(nc3ccc(O)cc13)-c1cc3c(c(=O)n1C2)COC(=O)[C@]3(O)CC [SN-38]; conditions: max 0.3 µM
In short: as §1

AZD0156 = compound: CN(C)CCCOc1ccc(-c2ccc3ncc4c(c3c2)n(C2CCOCC2)c(=O)n4C)cn1 [AZD0156]
In short: as §1

AZD6738 = compound: C[C@@H]1COCCN1C2=NC(=NC(=C2)C3(CC3)[S@](=N)(=O)C)C4=C5C=CNC5=NC=C4 [AZD6738]; conditions: max 10 µM
In short: as §1

Palbociclib = compound: CC(=O)c1c(C)c2cnc(Nc3ccc(N4CCNCC4)cn3)nc2n(C2CCCC2)c1=O [Palbociclib]; conditions: max 10 µM
In short: as §1

Crizotinib = compound: C[C@@H](Oc1cc(-c2cnn(C3CCNCC3)c2)cnc1N)c1c(Cl)ccc(F)c1Cl [Crizotinib]; conditions: max 10 µM
In short: as §1

AZD5153 = compound: COc1nnc2ccc(N3CCC(c4ccc(OCCN5CCN(C)C(=O)[C@H]5C)cc4)CC3)nn12 [AZD5153]; conditions: max 1 µM
In short: as §1

Olaparib = compound: O=C(c1cc(Cc2n[nH]c(=O)c3ccccc23)ccc1F)N1CCN(C(=O)C2CC2)CC1 [Olaparib]; conditions: max 10 µM
In short: as §1

AZD7648 = compound: Cc1cc2ncnn2cc1Nc1ncc2c(n1)n(C1CCOCC1)c(=O)n2C [AZD7648]; conditions: max 10 µM
In short: as §1

Trametinib = compound: CC(=O)Nc1cccc(-n2c(=O)n(C3CC3)c(=O)c3c(Nc4ccc(I)cc4F)n(C)c(=O)c(C)c32)c1 [Trametinib]; conditions: max 1 µM
In short: as §1

Row | Cell Line | IC50, cell viability 72 h (Capivasertib; max 10 µM) | IC50, cell viability 72 h (Selumetinib; max 10 µM) | IC50, cell viability 72 h (AZD2811) | IC50, cell viability 72 h (Venetoclax) | IC50, cell viability 72 h (Prexasertib) | IC50, cell viability 72 h (AZD4320) | IC50, cell viability 72 h (AZD5991) | IC50, cell viability 72 h (AZD8186) | IC50, cell viability 72 h (Dasatinib) | IC50, cell viability 72 h (Taselisib) | IC50, cell viability 72 h (AZD1775; max 3 µM) | IC50, cell viability 72 h (AZD1390) | IC50, cell viability 72 h (Doxorubicin) | IC50, cell viability 72 h (Gefitinib) | IC50, cell viability 72 h (Alisertib) | IC50, cell viability 72 h (SG3199) | IC50, cell viability 72 h (Savolitinib) | IC50, cell viability 72 h (Lapatinib) | IC50, cell viability 72 h (SN-38) | IC50, cell viability 72 h (AZD0156; max 3 µM) | IC50, cell viability 72 h (AZD6738) | IC50, cell viability 72 h (Palbociclib) | IC50, cell viability 72 h (Crizotinib) | IC50, cell viability 72 h (AZD5153) | IC50, cell viability 72 h (Olaparib) | IC50, cell viability 72 h (AZD7648) | IC50, cell viability 72 h (Trametinib) | IC50, cell viability 72 h (Capivasertib; max 3 µM) | IC50, cell viability 72 h (Selumetinib; max 3 µM) | IC50, cell viability 72 h (AZD1775; max 1 µM) | IC50, cell viability 72 h (AZD0156; max 1 µM)
1 | 647-V (Bladder Carcinoma) | > 10000 nM | > 10000 nM | > 1000 nM | > 1000 nM | 174 nM | > 1000 nM | 961 nM | > 3000 nM | > 2000 nM | > 10000 nM | 812 nM | > 300 nM | 240 nM | > 10000 nM | > 10000 nM | > 1 nM | > 1000 nM | > 10000 nM | 2.35 nM | > 3000 nM | > 10000 nM | > 10000 nM | > 10000 nM | > 1000 nM | > 10000 nM | > 10000 nM | > 1000 nM |  |  |  | 
2 | A172 (Glioblastoma) | > 10000 nM | > 10000 nM | 708 nM | > 1000 nM | 367 nM | > 1000 nM | > 1000 nM | > 3000 nM | > 2000 nM | > 10000 nM | > 3000 nM | > 300 nM | 189 nM | > 10000 nM | 1420 nM | > 1 nM | > 1000 nM | > 10000 nM | 44.1 nM | > 3000 nM | 9490 nM | > 10000 nM | > 10000 nM | > 1000 nM | > 10000 nM | > 10000 nM | > 1000 nM |  |  |  | 
3 | EFM-192A (Breast Carcinoma) | > 10000 nM | > 10000 nM | > 1000 nM | > 1000 nM | > 1000 nM | > 1000 nM | 706 nM | > 3000 nM | > 2000 nM | 475 nM | > 3000 nM | > 300 nM | > 1000 nM | > 10000 nM | > 10000 nM | > 1 nM | > 1000 nM | 1360 nM | > 300 nM | > 3000 nM | > 10000 nM | > 10000 nM | > 10000 nM | > 1000 nM | > 10000 nM | > 10000 nM | > 1000 nM |  |  |  | 
4 | EKVX (Non-Small Cell Lung Carcinoma) |  |  | > 1000 nM | > 1000 nM | > 1000 nM | > 1000 nM | > 1000 nM | > 3000 nM |  | > 10000 nM |  |  | > 1000 nM |  | > 10000 nM | > 1 nM |  |  | > 300 nM |  | > 10000 nM |  |  |  | > 10000 nM | > 10000 nM | 747 nM | > 3000 nM | > 3000 nM | > 1000 nM | > 1000 nM
